The results in this text go back to PubChem BioAssay AID687032 (Broad Institute, 2013).

SMILES strings stand for the structures. Records with an inconclusive call do not appear.

This test relates to IOSE-T80 viability, CellTiterGlo ATP luminescence, 96 h. Description: IOSE-T80 viability loss, PAX8-independent line – cell-based, cherry-pick, selectivity assay for PAX8 inhibitor project, dose response (AID 687032).
In the case of `COc1ccc(S(=O)(=O)Nc2ccc3c(c2)CC(=O)N([C@@H](C)CO)C[C@@H](C)[C@@H](CN(C)Cc2ccc(-c4ccccc4)cc2)O3)cc1`, the AC50 is < 260 nM.

With `COc1cc(OC)cc(C(=O)NCC(=O)OCC(=O)c2cc(C)n(Cc3ccco3)c2C)c1`, the AC50 is < 260 nM. On to `CC(C)CCCCCCCCCCCCC(=O)NCC(=O)NC1C(C)OC(Nc2ncnc3nc[nH]c23)C(O)C1O` (stereo not drawn), for which the AC50 is < 260 nM. With `Cc1ccccc1CNC(=O)C1CCCN(c2nnc(C)c3c(C)n(-c4ccccc4)nc23)C1` (stereo not drawn), the AC50 is < 260 nM. Turning to `C[C@H](CO)N1C[C@H](C)[C@@H](CN(C)CC2CCCCC2)Oc2c(NC(=O)CCCCCC(=O)Nc3ccccc3N)cccc2C1=O`, the AC50 was < 260 nM.

Consider `Cn1c(CCN2CCCC2)nc2cc(NS(=O)(=O)c3ccccc3)ccc21`, for which the AC50 was < 260 nM. As to `N#Cc1ccc(-c2ccc(C3[C@@H]4CN(C(=O)C5CC5)C[C@H]3N4)cc2)cc1` (stereo partly drawn), the AC50 was < 260 nM.

As for `C[C@@H]1CN([C@H](C)CO)C(=O)Cc2cc(NC(=O)Nc3ccc(F)cc3)ccc2O[C@H]1CN(C)Cc1ccc(Cl)c(Cl)c1`, the AC50 is < 260 nM. On to `C=C(C)c1nc(Oc2ccccc2)nc(Oc2ccccc2)n1`, for which the AC50 is < 260 nM. For the compound `CCOc1ccc(NC(=O)Nc2cc(OCC(F)(F)F)cc(OCC(F)(F)F)c2)cc1`, the AC50 was 8810 nM. With `COc1ccc2c(COC(=O)CNC(=O)C34CC5CC(CC(C5)C3)C4)cc(=O)oc2c1`, the AC50 is < 260 nM. `Cn1ncc2c(O/N=C(\N)c3ccc(C(F)(F)F)cc3)ncnc21`: the AC50 was < 260 nM. In the case of `Cc1ccc(Cl)cc1N1CCN(C(=O)c2noc(C)c2[N+](=O)[O-])CC1`, the AC50 was < 260 nM.

Consider `COc1ccc(S(=O)(=O)Nc2ccc3c(c2)C(=O)N([C@H](C)CO)C[C@H](C)[C@H](CN(C)Cc2ccc(C(F)(F)F)cc2)OCCCC[C@H](C)O3)cc1`, for which the AC50 was 3450 nM. As for `C[C@@H]1CN([C@@H](C)CO)C(=O)Cc2cc(NS(=O)(=O)c3ccc(Cl)cc3)ccc2O[C@H]1CN(C)Cc1ccc(Oc2ccccc2)cc1`, the AC50 was < 260 nM.

In the case of `O=C(Nc1ccccc1)NN(C(=O)CCl)c1ccccc1`, the AC50 was 8600 nM. For the compound `C[C@@H]1CN([C@H](C)CO)C(=O)c2cc(NC(=O)Nc3ccccc3)ccc2O[C@@H](C)CCCCO[C@@H]1CN(C)Cc1ccc(C(F)(F)F)cc1`, the AC50 is < 260 nM. Take `Cc1ccc(-c2csc3ncnc(Sc4nnc(CN5CCCCCC5=O)o4)c23)cc1`: the AC50 was 8670 nM. On to `C[C@@H]1CCCCO[C@H](CN(C)Cc2ccc(C(F)(F)F)cc2)[C@H](C)CN([C@H](C)CO)C(=O)c2cc(NS(=O)(=O)c3cccs3)ccc2O1`, for which the AC50 is < 260 nM. In the case of `O=C(Cc1nnc(NC(=O)c2ccccc2)s1)N/N=C/c1ccco1`, the AC50 is < 260 nM. For `C[C@@H]1CCCCO[C@@H](CN(C)S(=O)(=O)c2ccc(Cl)cc2)[C@H](C)CN([C@H](C)CO)C(=O)c2cc(NS(=O)(=O)c3ccc(F)cc3)ccc2O1`, the AC50 was < 260 nM. Take `Cc1ccc(S(=O)(=O)Nc2ccc3c(c2)CC(=O)N([C@H](C)CO)C[C@H](C)[C@H](CN(C)S(=O)(=O)c2ccc(F)cc2)O3)cc1`: the AC50 was < 260 nM. For the compound `COc1ccc(NC(=O)c2c(Nc3ccccc3)sc(C(=O)c3ccc(F)cc3)c2N)cc1`, the AC50 was < 260 nM. `CCN(CC)S(=O)(=O)c1cc(NC(=O)Cn2ncc(Cl)c(Cl)c2=O)ccc1C`: the AC50 was < 260 nM. Turning to `C[C@@H]1CN([C@H](C)CO)S(=O)(=O)c2ccc(C#CC3CCCC3)cc2O[C@@H]1CN(C)C(=O)Cc1ccncc1`, the AC50 was < 260 nM.

Take `COc1ccccc1C#Cc1ccc2c(c1)O[C@H](CN(C)Cc1cccnc1)[C@H](C)CN([C@@H](C)CO)S2(=O)=O`: the AC50 is 3050 nM. As to `O=c1cc(-c2ccccc2)oc2ccc3ccccc3c12`, the AC50 was < 260 nM.

Take `C[C@@H]1CCCCO[C@@H](CN(C)C(=O)Nc2cccc3ccccc23)[C@H](C)CN([C@H](C)CO)C(=O)c2cc(NS(=O)(=O)c3ccc(F)cc3)ccc2O1`: the AC50 was < 260 nM. Turning to `C[C@@H]1CCCCO[C@@H](CN(C)Cc2ccc(C(F)(F)F)cc2)[C@@H](C)CN([C@@H](C)CO)C(=O)c2cc(NS(=O)(=O)c3ccccc3)ccc2O1`, the AC50 is < 260 nM. As for `Cc1ccc(S(=O)(=O)N(C)C[C@@H]2Oc3cc(C#Cc4ccncc4)ccc3S(=O)(=O)N([C@H](C)CO)C[C@@H]2C)cc1`, the AC50 is 24200 nM. On to `O=C(NC1CCCCC1)C(c1cccnc1)N(C(=O)CCl)c1ccc(F)cc1` (stereo not drawn), for which the AC50 was 10200 nM. With `CCOC(=O)c1c(-c2ccc(F)cc2)csc1NC(=O)CN1C(=O)NC2(CCCCC2C)C1=O` (stereo not drawn), the AC50 is 9070 nM. As to `C[C@@H]1CCCCO[C@H](CN(C)Cc2ccc(C(F)(F)F)cc2)[C@H](C)CN([C@@H](C)CO)C(=O)c2cc(NS(=O)(=O)c3cccs3)ccc2O1`, the AC50 is 33500 nM. The same measure for `C(=Cc1cnc2ccccc2n1)c1ccc2c(c1)OCO2`: 7890 nM.

On to `C#CCN(C[C@@H]1[C@@H](OC(=O)NCC2CCCCC2)[C@@H](OC(=O)NCC2CCCCC2)Cn2c(=O)ccc(=O)n21)S(=O)(=O)c1ccc(C)cc1`, for which the AC50 was < 260 nM.

Turning to `COc1cc(OC)c2c(-c3cccc(-c4ccc(OC)c(F)c4)c3)cc(=O)oc2c1`, the AC50 is 10700 nM. As for `COc1ccc(S(=O)(=O)Nc2ccc3c(c2)C(=O)N([C@H](C)CO)C[C@H](C)[C@@H](CN(C)Cc2ccc(Cl)c(Cl)c2)OCCCC[C@@H](C)O3)cc1`, the AC50 was 6540 nM.

As for `Cn1c(SCC(=O)c2ccccc2)nnc1-c1ccccn1`, the AC50 is < 260 nM.

A word on the AC50: it is the midpoint of the concentration-response curve, whichever way the signal moves.
